{"source": "paper PMC3723128", "about": "(Journal of medicinal chemistry, 2013)", "type_in_all_cases": "biochemical", "key": {"recombinant hDHFR": {"target": "T1, recombinant hDHFR (Homo sapiens, UniProt P00374)", "T1 sequence (P00374 1-187)": "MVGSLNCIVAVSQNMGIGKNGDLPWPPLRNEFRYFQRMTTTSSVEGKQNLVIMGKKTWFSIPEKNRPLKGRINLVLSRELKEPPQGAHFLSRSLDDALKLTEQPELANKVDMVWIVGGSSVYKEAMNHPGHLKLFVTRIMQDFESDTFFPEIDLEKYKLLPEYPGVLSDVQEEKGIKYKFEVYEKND", "experiment": "Inhibition of recombinant hDHFR", "details": "compared to unsubstituted phenyl compound 4"}, "recombinant pjDHFR": {"target": "recombinant pjDHFR (Pneumocystis jirovecii, UniProt Q9UUP5)", "experiment": "Inhibition of recombinant pjDHFR"}, "maDHFR": {"target": "T2, maDHFR (Mycobacterium avium, UniProt O30463)", "T2 sequence (O30463 1-181)": "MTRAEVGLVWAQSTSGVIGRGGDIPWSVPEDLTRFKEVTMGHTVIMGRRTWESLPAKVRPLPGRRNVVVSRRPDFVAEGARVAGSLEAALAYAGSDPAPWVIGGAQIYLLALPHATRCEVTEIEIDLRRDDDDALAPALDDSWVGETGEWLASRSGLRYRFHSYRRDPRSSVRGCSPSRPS", "experiment": "Inhibition of maDHFR"}}, "data": [{"smiles": "Nc1nc(N)c2cc(Nc3ccc4ccccc4c3)cnc2n1", "note": "[Compound 11, N^6-2-naphthylpyrido[2,3-d]pyrimidine-2,4,6-triamine]", "values": [{"measurement": "fold loss in potency against hDHFR", "setting": "recombinant hDHFR", "result": 10, "unit": "fold"}]}, {"smiles": "CN(c1cc(F)c(F)c(F)c1)c1cnc2nc(N)nc(N)c2c1", "note": "[Compound 26, N^6-methyl-N^6-(3,4,5-trifluorophenyl)pyrido[2,3-d]pyrimidine-2,4,6-triamine]", "values": [{"measurement": "fold more selective for pjDHFR than PTX", "setting": "recombinant pjDHFR", "result": 18, "unit": "fold"}, {"measurement": "fold difference in potency for pjDHFR made by the N9-Me moiety", "setting": "recombinant pjDHFR; pairs 16/4 and 26/15, from IC50 values in Table 5", "result": "~200", "unit": "fold"}]}, {"smiles": "Nc1nc(N)c2cc(Nc3cccc4ccccc34)cnc2n1", "note": "[Compound 13, N^6-1-naphthylpyrido[2,3-d]pyrimidine-2,4,6-triamine]", "values": [{"measurement": "fold loss in potency against hDHFR", "setting": "recombinant hDHFR", "result": 10, "unit": "fold"}]}, {"smiles": "COc1cc(N(C)c2cnc3nc(N)nc(N)c3c2)cc(OC)c1OC", "note": "[Compound 20, N^6-methyl-N^6-(3,4,5-trimethoxyphenyl)pyrido[2,3-d]pyrimidine-2,4,6-triamine]", "values": [{"measurement": "inhibitory potency against maDHFR", "setting": "maDHFR", "result": "subnanomolar"}]}, {"smiles": "CN(c1cnc2nc(N)nc(N)c2c1)c1cccc2ccccc12", "note": "[Compound 24, N^6-methyl-N^6-1-naphthylpyrido[2,3-d]pyrimidine-2,4,6-triamine]", "values": [{"measurement": "rl/ma selectivity ratio", "setting": "maDHFR; IC50 rlDHFR / IC50 maDHFR", "result": 10.3}]}, {"smiles": "CN(c1ccccc1)c1cnc2nc(N)nc(N)c2c1", "note": "[Compound 16, N^6-methyl-N^6-phenylpyrido[2,3-d]pyrimidine-2,4,6-triamine]", "values": [{"measurement": "fold more potent than TMP against pjDHFR", "setting": "recombinant pjDHFR", "result": "about 50 fold"}]}, {"smiles": "COc1cc(Nc2cnc3nc(N)nc(N)c3c2)cc(OC)c1OC", "note": "[Compound 8, N^6-(3,4,5-trimethoxyphenyl)pyrido[2,3-d]pyrimidine-2,4,6-triamine]", "values": [{"measurement": "h/pj selectivity ratio", "setting": "recombinant pjDHFR; IC50 hDHFR / IC50 pjDHFR", "result": 12.7}]}]}
